Measurements as given in PubChem BioAssay (NCI).
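Abbreviation: GI50, concentration required for 50% inhibition of growth. TGI is the concentration that stops growth completely.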

Key:
Experiment in all cases: inhibition of tumour cell growth, NCI panel, 384-well format
A498 renal = system: A498 renal
MDA-MB-435 melanoma = system: MDA-MB-435 melanoma
SF-295 CNS = system: SF-295 CNS
OVCAR-8 ovarian = system: OVCAR-8 ovarian
SR leukemia = system: SR leukemia
A549 NSCLC = system: A549 NSCLC
TK-10 renal = system: TK-10 renal
SW-620 colon = system: SW-620 colon
MDA-MB-468 breast = system: MDA-MB-468 breast
MOLT-4 leukemia = system: MOLT-4 leukemia
SNB-19 CNS = system: SNB-19 CNS
SK-MEL-5 melanoma = system: SK-MEL-5 melanoma
HOP-92 NSCLC = system: HOP-92 NSCLC
CAKI-1 renal = system: CAKI-1 renal
SF-539 CNS = system: SF-539 CNS
NCI-H23 lung = system: NCI-H23 lung
T-47D breast = system: T-47D breast
SNB-75 CNS = system: SNB-75 CNS
NCI-H322M lung = system: NCI-H322M lung
SK-OV-3 ovarian = system: SK-OV-3 ovarian
OVCAR-5 ovarian = system: OVCAR-5 ovarian
MDA-MB-231 breast = system: MDA-MB-231 breast
ACHN renal = system: ACHN renal
HCT-15 colon = system: HCT-15 colon
EKVX NSCLC = system: EKVX NSCLC
UACC-257 melanoma = system: UACC-257 melanoma
RPMI-8226 leukemia = system: RPMI-8226 leukemia
HOP-62 NSCLC = system: HOP-62 NSCLC
NCI-H460 NSCLC = system: NCI-H460 NSCLC
PC-3 prostate = system: PC-3 prostate
HS 578T breast = system: HS 578T breast
U251 glioblastoma = system: U251 glioblastoma
HT29 colon = system: HT29 colon
SK-MEL-2 melanoma = system: SK-MEL-2 melanoma
SN12C renal = system: SN12C renal
HCC-2998 colon = system: HCC-2998 colon
NCI-H522 lung = system: NCI-H522 lung
NCI/ADR-RES ovarian = system: NCI/ADR-RES ovarian
M14 melanoma = system: M14 melanoma
RXF 393 renal = system: RXF 393 renal
HL-60(TB) leukemia = system: HL-60(TB) leukemia
KM12 colon = system: KM12 colon
COLO 205 colon = system: COLO 205 colon
BT-549 breast = system: BT-549 breast
NCI-H226 lung = system: NCI-H226 lung
MALME-3M melanoma = system: MALME-3M melanoma
SK-MEL-28 melanoma = system: SK-MEL-28 melanoma
SF-268 CNS = system: SF-268 CNS
UACC-62 melanoma = system: UACC-62 melanoma
OVCAR-4 ovarian = system: OVCAR-4 ovarian
DU-145 prostate = system: DU-145 prostate
OVCAR-3 ovarian = system: OVCAR-3 ovarian
IGROV1 ovarian = system: IGROV1 ovarian
CCRF-CEM leukemia = system: CCRF-CEM leukemia
MCF7 breast = system: MCF7 breast
786-0 renal = system: 786-0 renal

N[C@H]1C[C@@H]1c1ccc(-c2cccc(O)c2)cc1
GI50 (A498 renal): 20.3 µM | TGI (A498 renal): 60.3 µM | GI50 (MDA-MB-435 melanoma): 20.9 µM | TGI (MDA-MB-435 melanoma): 46.4 µM | GI50 (SF-295 CNS): 33.9 µM | TGI (SF-295 CNS): > 100 µM | GI50 (OVCAR-8 ovarian): 31.8 µM | TGI (OVCAR-8 ovarian): 99.8 µM | GI50 (SR leukemia): 18.8 µM | TGI (SR leukemia): 33.1 µM | GI50 (A549 NSCLC): 44.9 µM | TGI (A549 NSCLC): > 100 µM | GI50 (TK-10 renal): 31.5 µM | TGI (TK-10 renal): 93.3 µM | GI50 (SW-620 colon): 22.5 µM | TGI (SW-620 colon): 43.5 µM | GI50 (MDA-MB-468 breast): 4.18 µM | TGI (MDA-MB-468 breast): 20.1 µM | GI50 (MOLT-4 leukemia): 14.7 µM | TGI (MOLT-4 leukemia): 28 µM | GI50 (SNB-19 CNS): 42.8 µM | TGI (SNB-19 CNS): > 100 µM | GI50 (SK-MEL-5 melanoma): 14.1 µM | TGI (SK-MEL-5 melanoma): 27.2 µM | GI50 (HOP-92 NSCLC): 29.4 µM | TGI (HOP-92 NSCLC): 72.9 µM | GI50 (CAKI-1 renal): 24.6 µM | TGI (CAKI-1 renal): 50.9 µM | GI50 (SF-539 CNS): 24.6 µM | TGI (SF-539 CNS): 63.1 µM | GI50 (NCI-H23 lung): 23.3 µM | TGI (NCI-H23 lung): 65.6 µM | GI50 (T-47D breast): 19.2 µM | TGI (T-47D breast): 38.4 µM | GI50 (SNB-75 CNS): 18.9 µM | TGI (SNB-75 CNS): 59.4 µM | GI50 (NCI-H322M lung): 74.5 µM | TGI (NCI-H322M lung): > 100 µM | GI50 (SK-OV-3 ovarian): 20 µM | TGI (SK-OV-3 ovarian): 48.8 µM | GI50 (OVCAR-5 ovarian): 30.4 µM | TGI (OVCAR-5 ovarian): > 100 µM | GI50 (MDA-MB-231 breast): 21.1 µM | TGI (MDA-MB-231 breast): 50.3 µM | GI50 (ACHN renal): 27 µM | TGI (ACHN renal): 61.7 µM | GI50 (HCT-15 colon): 26.7 µM | TGI (HCT-15 colon): 68 µM | GI50 (EKVX NSCLC): 30.8 µM | TGI (EKVX NSCLC): > 100 µM | GI50 (UACC-257 melanoma): 19.2 µM | TGI (UACC-257 melanoma): 34.4 µM | GI50 (RPMI-8226 leukemia): 18.4 µM | TGI (RPMI-8226 leukemia): 34.9 µM | GI50 (HOP-62 NSCLC): 17 µM | TGI (HOP-62 NSCLC): 45 µM | GI50 (NCI-H460 NSCLC): 18.1 µM | TGI (NCI-H460 NSCLC): 34.6 µM | GI50 (PC-3 prostate): 29.6 µM | TGI (PC-3 prostate): 95.1 µM | GI50 (HS 578T breast): 16.9 µM | TGI (HS 578T breast): 34.5 µM | GI50 (U251 glioblastoma): 24.1 µM | TGI (U251 glioblastoma): 55.5 µM | GI50 (HT29 colon): 24.6 µM | TGI (HT29 colon): 64.3 µM | GI50 (SK-MEL-2 melanoma): 32.5 µM | TGI (SK-MEL-2 melanoma): 48.8 µM | GI50 (SN12C renal): 44.7 µM | TGI (SN12C renal): > 100 µM | GI50 (HCC-2998 colon): 18.4 µM | TGI (HCC-2998 colon): 38.7 µM | GI50 (NCI-H522 lung): 17.9 µM | TGI (NCI-H522 lung): 36.6 µM | GI50 (NCI/ADR-RES ovarian): 38.8 µM | TGI (NCI/ADR-RES ovarian): > 100 µM | GI50 (M14 melanoma): 20.1 µM | TGI (M14 melanoma): 36.5 µM | GI50 (RXF 393 renal): 22 µM | TGI (RXF 393 renal): 46.3 µM | GI50 (HL-60(TB) leukemia): 14.3 µM | TGI (HL-60(TB) leukemia): 27.5 µM | GI50 (KM12 colon): 20.1 µM | TGI (KM12 colon): 37.8 µM | GI50 (COLO 205 colon): 43.9 µM | TGI (COLO 205 colon): > 100 µM | GI50 (BT-549 breast): 19.5 µM | TGI (BT-549 breast): 48.8 µM | GI50 (NCI-H226 lung): 30.3 µM | TGI (NCI-H226 lung): 96.1 µM | GI50 (MALME-3M melanoma): 16.8 µM | TGI (MALME-3M melanoma): 31.1 µM | GI50 (SK-MEL-28 melanoma): 22.5 µM | TGI (SK-MEL-28 melanoma): 43.9 µM | GI50 (SF-268 CNS): 36.6 µM | TGI (SF-268 CNS): > 100 µM | GI50 (UACC-62 melanoma): 18.7 µM | TGI (UACC-62 melanoma): 40.8 µM | GI50 (OVCAR-4 ovarian): 39.2 µM | TGI (OVCAR-4 ovarian): > 100 µM | GI50 (DU-145 prostate): 48.7 µM | TGI (DU-145 prostate): > 100 µM | GI50 (OVCAR-3 ovarian): 40.6 µM | TGI (OVCAR-3 ovarian): > 100 µM | GI50 (IGROV1 ovarian): 44.1 µM | TGI (IGROV1 ovarian): > 100 µM | GI50 (CCRF-CEM leukemia): 15 µM | TGI (CCRF-CEM leukemia): 28.4 µM | GI50 (MCF7 breast): 36 µM | TGI (MCF7 breast): > 100 µM | GI50 (786-0 renal): 30.1 µM | TGI (786-0 renal): > 100 µM
